Patent US20080261931A1, “Method and Means of Preventing and Treating Sleep Disordered Breathing” (Cereu-Science AB, priority 2005, published 2008)

Columns and labels:
OSA patient = assay: Repeated dosing study with calcium acamprosate in an OSA patient (polysomnographic recording); assay type: in vivo, human
Description: A study of repeated calcium acamprosate dosing was undertaken in a patient with a BMI of 32.2. This patient had not consumed any alcohol during the 3 months proceeding the current medication period. The patient suffered from moderate OSA (as determined by an AH index in excess of 35 during previous clinical 8-channel overnight monitoring studies). The contribution from central apneas was low and constituted 5% of obstructive events, respectively. A baseline polysomnographic recording (standard sleep montage, nasal pressure recording) was undertaken at baseline and calcium acamprosate therapy was started on 333 mg three times per day orally (Campral® tablets) with an increase to 2 times 333 mg three times per day after two weeks. Key parameters (indices) were recorded at first dosing and after daily dosing for three weeks (Table).

[1] = test system: patient with obstructive sleep apnea; assay: Repeated dosing, multiple medication study with calcium acamprosate and a weight reducing agent (sibutramine); polysomnographic investigation; assay type: in vivo, human
Description: The patient had recently been started on sibutramine (Reductil® capsules, 15 mg once daily) for weight loss. A follow-up sleep investigation (investigation 2) was performed 126 days later when the patient presented a BMI of 31.8. The AHI at this occasion was 19. Calcium acamprosate therapy was started on 333 mg three times per day orally (Campral® tablets) and increased to twice 333 mg three times per day after two weeks. At the end of this treatment period of four weeks (investigation 3) the BMI was marginally changed compared with investigation 2 (31.6) but AHI had decreased to 9.

[2] = pending dosage, route of administration, and dosing scheme; extended in renal impairment; cited from earlier work
[3] = Week 3 of oral calcium acamprosate, Week 0 baseline 3
[4] = Week 0, investigation 1 (admission), recently started on sibutramine 15 mg once daily
[5] = Week 18, investigation 2 (126 days later), sibutramine 15 mg once daily

## CC(=O)NCCCS(=O)(=O)O [calcium acamprosate]
OSA patient; [3]
  CSAI (central sleep apnea index, number of central apneic events per hour of sleep): 2 events per hour of sleep
  Sat <90%/hr (number of apneic/hypopneic episodes per hour of sleep with an oxygen saturation below 90%): 1 episodes per hour of sleep
OSA patient; Week 3 of oral calcium acamprosate, Week 0 baseline 18
  AI (apnea index, number of obstructive apneic events per hour of sleep): 7 events per hour of sleep
OSA patient; Week 3 of oral calcium acamprosate, Week 0 baseline 22
  HI (hypopnea index, number of obstructive hypopneic events per hour of sleep): 9 events per hour of sleep
OSA patient; Week 3 of oral calcium acamprosate, Week 0 baseline 40
  AHI (apnea/hypopnea index, number of obstructive apneic/hypopneic events per hour of sleep): 16 events per hour of sleep
OSA patient; Week 3 of oral calcium acamprosate, Week 0 baseline 86
  MinSat (lowest oxygen saturation value recorded during the period of sleep): 91
OSA patient; after calcium acamprosate, polysomnography
  Number of central and mixed events: seemed to decrease in proportion to the number of obstructive events
OSA patient; already after one week
  Daytime sleepiness (patient-reported): reduction in daytime sleepiness
OSA patient; early after introduction of the medication
  Snoring (patient-reported): notable reduction in snoring
OSA patient; obstructive and seemingly central events, maintained over the entire study period
  Apnea reducing effect in sleep apnea: potent apnea reducing effect
OSA patient; three-week study, one patient
  Side effects: No significant side effects
[1]; added to sibutramine
  Apnea reducing effect in a patient with sleep apnea: potent apnea reducing effect
[1]; combined with sibutramine
  Effect of calcium acamprosate in comparison with that obtained by the weight reducing agent: additive
[2]
  Half-life in plasma: 15 to 30 h

## CC(C)CC(N(C)C)C1(c2ccc(Cl)cc2)CCC1 (stereo not drawn) [Sibutramine, sibutramine]
[1]; [4]
  AHI (apnea/hypopnea index, number of obstructive apneic/hypopneic events per hour of sleep): 30 events per hour of sleep
  BMI (body mass index): 33.2 kg/m^2
[1]; [5]
  AHI (apnea/hypopnea index, number of obstructive apneic/hypopneic events per hour of sleep): 19 events per hour of sleep
  BMI (body mass index): 31.8 kg/m^2
